Data as given in patent US20230355647A1, “Marker for determining anti-cancer effects of mitochondrial oxidative phosphorylation pathway inhibitor” (NANJING SHIJIANG MEDICINE TECHNOLOGY CO., LTD, priority 2020, published 2023).

Experiments:
G-401 = test: Cell viability (CellTiter-Glo), G-401; type: cell-based; details: Homo sapiens; G-401 cell line, 3-4 days of culture
Protocol: Cell viability was detected using the Promega CellTiter-Glo kit, the kit reflected cell viability by directly measuring intracellular ATP content. The inhibitory effect (IC50 value) of Gboxin, a mitochondrial oxidative phosphorylation pathway inhibitor, on different tumor cell lines was tested in the Example. The name, source, and culture condition of each tumor cell line were as follows: Cell line G-401 (ATCC, No. CRL-1441) was cultured in 10% fetal bovine serum-containing McCoy's 5a medium (+P/S). […] Cell viability was detected using the Promega CellTiter-Glo kit, the kit reflected cell viability by directly measuring intracellular ATP content.

22RV1 = test: Cell viability (CellTiter-Glo), 22RV1; type: cell-based; details: Homo sapiens; 22RV1 cell line, 3-4 days of culture
Protocol: (§1) Cell viability was detected using the Promega CellTiter-Glo kit, the kit reflected cell viability by directly measuring intracellular ATP content. The inhibitory effect (IC50 value) of Gboxin, a mitochondrial oxidative phosphorylation pathway inhibitor, on different tumor cell lines was tested in the Example. The name, source, and culture condition of each tumor cell line were as follows:
Cell line 22RV1 (ATCC, No. CRL-2505) was cultured in 10% fetal bovine serum-containing RPMI1640 medium (+P/S).
(§2) The above tumor cells were cultured in the relevant medium (+P/S), and incubated for 3 h, then the gradient diluted Gboxin was added, and IC50 (50% inhibiting concentration) was measured after 3-4 days of culture.

MIA PaCa-2 = test: Cell viability (CellTiter-Glo), MIA PaCa-2; type: cell-based; details: Homo sapiens; MIA PaCa-2 cell line, 3-4 days of culture
Protocol: as §1
Cell line MIA PaCa-2 (ATCC, No. CRL-1420) was cultured in 10% fetal bovine serum-containing DMEM medium (+P/S).
as §2

H9 = test: Cell viability (CellTiter-Glo), H9; type: cell-based; details: Homo sapiens; H9 cell line, 3-4 days of culture
Protocol: as §1
Cell line H9 (ATCC, No. HTB-176) was cultured in 10% fetal bovine serum-containing RPMI1640 medium (+P/S).
as §2

Jurkat, Clone E6-1 = test: Cell viability (CellTiter-Glo), Jurkat, Clone E6-1; type: cell-based; details: Homo sapiens, Clone E6-1 cell line, 3-4 days of culture
Protocol: as §1
Cell line Jurkat, Clone E6-1 (ATCC, No. TIB-152) was cultured in 10% fetal bovine serum-containing RPMI1640 medium (+P/S).
as §2

G-361 = test: Cell viability (CellTiter-Glo), G-361; type: cell-based; details: Homo sapiens; G-361 cell line, 3-4 days of culture
Protocol: as §1
Cell line G-361 (ATCC, No. CRL-1424) was cultured in 10% fetal bovine serum-containing McCoy's 5a medium (+P/S).
as §2

NCI-H1048 = test: Cell viability (CellTiter-Glo), NCI-H1048; type: cell-based; details: Homo sapiens; NCI-H1048 cell line, 3-4 days of culture
Protocol: as §1
Cell line NCI-H1048 (ATCC, No. CRL-5853) was cultured in 5% fetal bovine serum-containing HITES medium (+P/S).
as §2

GAK = test: Cell viability (CellTiter-Glo), GAK; type: cell-based; details: GAK cell line, 3-4 days of culture
Protocol: as §1
Cell line GAK (JCRB, No. JCRB0180) was cultured in 20% fetal bovine serum-containing Ham's F12 medium (+P/S).
as §2

LS 180 = test: Cell viability (CellTiter-Glo), LS 180; type: cell-based; details: Homo sapiens, LS180; LS 180 cell line, 3-4 days of culture
Protocol: as §1
Cell line LS 180 (ATCC, No. CL-187) was cultured in 10% fetal bovine serum-containing EMEM medium (+P/S).
as §2

HCC70 = test: Cell viability (CellTiter-Glo), HCC70; type: cell-based; details: Homo sapiens; HCC70 cell line, 3-4 days of culture
Protocol: as §1
Cell line HCC70 (ATCC, No. CRL-2315) was cultured in 10% fetal bovine serum-containing RPMI1640 medium (+P/S).
as §2

Gp2D = test: Cell viability (CellTiter-Glo), Gp2D; type: cell-based; details: Homo sapiens; Gp2D cell line, 3-4 days of culture
Protocol: as §1
Cell line Gp2D (ECACC, No. 95090714) was cultured in 10% fetal bovine serum-containing DMEM medium (+P/S).
as §2

NCI-H2081 = test: Cell viability (CellTiter-Glo), NCI-H2081; type: cell-based; details: Homo sapiens; NCI-H2081 cell line, 3-4 days of culture
Protocol: as §1
Cell line NCI-H2081 (ATCC, No. CRL-5920) was cultured in 5% fetal bovine serum-containing HITES medium (+P/S).
as §2

NCI-H1793 = test: Cell viability (CellTiter-Glo), NCI-H1793; type: cell-based; details: Homo sapiens; NCI-H1793 cell line, 3-4 days of culture
Protocol: as §1
Cell line NCI-H1793 (ATCC, No. CRL-5896) was cultured in 5% fetal bovine serum-containing HITES medium (+P/S).
as §2

C3A = test: Cell viability (CellTiter-Glo), C3A; type: cell-based; details: Homo sapiens; C3A cell line, 3-4 days of culture
Protocol: as §1
Cell line C3A (ATCC, No. CRL-10741) was cultured in 10% fetal bovine serum-containing EMEM medium (+P/S).
as §2

ATF4 stress pathway = test: Western Blot of ATF4 in tumor cells after inhibitor treatment; type: cell-based, human; details: 1 μM or 3 μM Gboxin, 1 μM Oligomycin A, 12 h; for activity of ATF4 stress pathway: FIG. 3; for ATF4 stress pathway (ATF4 content): FIG. 2
Protocol: The inhibition of mitochondrial oxidative phosphorylation pathway could cause the activation of ATF4 stress pathway and the decrease of mTOR pathway activity, the activity of the mTOR pathway was reflected by the expression level of phosphorylated ribosomal protein S6 (ie, p-S6).
(§3) The tumor cells NCI-H82, G-401 and WSU-DLCL2 were cultured in the relevant 10% FBS-containing medium (+p/s), and incubated overnight, then 1 μM Gboxin, 3 μM Gboxin or 1 μM Oligomycin A as shown in FIG. 2 was added. After 12 h of incubation, the content of ATF4 and p-S6 protein was detected using Western Blot, the experiment result was shown in FIG. 2.
as §3, with “The cell lines SF126, CFPAC-1” for “The tumor cells NCI-H82, G-401”, “and 786-O” for “and WSU-DLCL2”, “FIG. 3” for “FIG. 2”, “FIG. 3.” for “FIG. 2.”

[1] = tested on: brain tumors and other tumors; details: study published in Nature (2019); cited from earlier work

Work on `CCc1n(CC(=O)O[C@@H]2C[C@H](C)CC[C@H]2C(C)C)c2ccccc2[n+]1C.[Cl-]` [Gboxin] yielded an IC50 (G-401) of 0.777 µM, an IC50 (22RV1) of 2.53 µM and an IC50 (MIA PaCa-2) of 2.57 µM. For the same compound, the IC50 (H9) was 3.34 µM, the IC50 (Jurkat, Clone E6-1) was 3.51 µM and the IC50 (G-361) was 3.88 µM. The IC50 (NCI-H1048) was 4.34 µM, the IC50 (GAK) was 7.05 µM and the IC50 (LS 180) was 8.9 µM. The IC50 (HCC70) was 11.2 µM, the IC50 (Gp2D) was 13.3 µM and the IC50 (NCI-H2081) was 13.9 µM. For the same compound, the IC50 (NCI-H1793) was 16 µM, the IC50 (C3A) was 25.7 µM and the “activity of ATF4 stress pathway” value (ATF4 stress pathway; 786-O cells) was “no significant changes”. For the same compound, the “activity of ATF4 stress pathway” value (ATF4 stress pathway; CFPAC-1 cells) was “no significant changes”, the “ATF4 stress pathway (ATF4 content)” value (ATF4 stress pathway; G-401 cells) was “up-regulated” and the “ATF4 stress pathway (ATF4 content)” value (ATF4 stress pathway; NCI-H82 cells) was “up-regulated”. For the same compound, the “activity of ATF4 stress pathway” value (ATF4 stress pathway; SF126 cells) was “no significant changes”, the “ATF4 stress pathway (ATF4 content)” value (ATF4 stress pathway; WSU-DLCL2 cells) was “up-regulated” and the “killing effect on brain tumors and other tumors” value [1] was “excellent killing effect”.
